According to patent US8906944B2, “Compounds as tyrosine kinase modulators” (Allergan, Inc., priority 2009, dated 2014):
pIC50: −log10 of the molar value.

Tests used:
[1] = target: VEGFR2 (Homo sapiens, UniProt P35968); assay: VEGF stimulated Ca++ signal in vitro (FLIPR)
Method: VEGF Stimulated Ca^++Signal in Vitro
Automated FLIPR (Fluorometric Imaging Plate Reader) technology was used to screen for inhibitors of VEGF induced increases in intracellular calcium levels in fluorescent dye loaded endothelial cells. HUVEC (human umbilical vein endothelial cells) (Clonetics) were seeded in 96-well fibronectin coated black-walled plates overnight at 37 degree. C./5% CO2. […] C. Cells were washed 4 times (Original Cell Wash, Labsystems) to remove extracellular dye. […] Data were generated by determining max-min fluorescence levels for unstimulated, stimulated, and drug treated samples. IC50 values for test compounds were calculated from % inhibition of VEGF stimulated responses in the absence of inhibitor.

[2] = target: T1, human VEGF receptor (VEGFR-2) (Homo sapiens, UniProt P35968); assay: VEGFR2 kinase assay; format: biochemical; conditions: His-VEGFR-2 cytoplasmic domain, 3.6 μM ATP; Table IV, amide or urea linker; read-out: VEGFR2 Enzyme IC50
T1 construct: The cytoplasmic domain of the human VEGF receptor (VEGFR-2) was expressed; His; made in house; host or cells: insect cells (baculovirus)
T1 sequence (P35968 786-1356 limits assumed): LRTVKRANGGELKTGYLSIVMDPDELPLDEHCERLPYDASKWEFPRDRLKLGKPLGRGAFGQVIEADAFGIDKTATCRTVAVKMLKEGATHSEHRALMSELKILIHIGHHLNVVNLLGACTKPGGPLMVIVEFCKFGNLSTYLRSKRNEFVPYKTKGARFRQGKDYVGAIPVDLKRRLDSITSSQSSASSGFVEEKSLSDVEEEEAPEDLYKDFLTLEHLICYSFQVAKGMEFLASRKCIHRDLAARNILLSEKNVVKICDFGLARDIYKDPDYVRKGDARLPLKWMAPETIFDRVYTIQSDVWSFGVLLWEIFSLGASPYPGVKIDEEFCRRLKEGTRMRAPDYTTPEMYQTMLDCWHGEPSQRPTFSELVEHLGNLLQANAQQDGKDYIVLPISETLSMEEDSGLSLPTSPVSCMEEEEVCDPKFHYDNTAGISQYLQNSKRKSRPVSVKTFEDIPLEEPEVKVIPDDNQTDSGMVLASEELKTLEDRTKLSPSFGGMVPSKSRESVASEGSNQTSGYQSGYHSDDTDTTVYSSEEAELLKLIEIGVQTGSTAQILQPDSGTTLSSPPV
Summary of the method: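 His-tagged VEGFR-2 cytoplasmic domain from baculovirus-infected insect cells phosphorylating plate-bound poly-Glu-Tyr (4:1). IC50 from blank-subtracted optical density versus compound concentration.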

[3] = target: VEGFR1 (Homo sapiens, UniProt P17948); assay: VEGFR1 enzyme assay; format: biochemical; conditions: Table IV, amide or urea linker
VEGFR1, sequence (P17948 27-1338, species assumed): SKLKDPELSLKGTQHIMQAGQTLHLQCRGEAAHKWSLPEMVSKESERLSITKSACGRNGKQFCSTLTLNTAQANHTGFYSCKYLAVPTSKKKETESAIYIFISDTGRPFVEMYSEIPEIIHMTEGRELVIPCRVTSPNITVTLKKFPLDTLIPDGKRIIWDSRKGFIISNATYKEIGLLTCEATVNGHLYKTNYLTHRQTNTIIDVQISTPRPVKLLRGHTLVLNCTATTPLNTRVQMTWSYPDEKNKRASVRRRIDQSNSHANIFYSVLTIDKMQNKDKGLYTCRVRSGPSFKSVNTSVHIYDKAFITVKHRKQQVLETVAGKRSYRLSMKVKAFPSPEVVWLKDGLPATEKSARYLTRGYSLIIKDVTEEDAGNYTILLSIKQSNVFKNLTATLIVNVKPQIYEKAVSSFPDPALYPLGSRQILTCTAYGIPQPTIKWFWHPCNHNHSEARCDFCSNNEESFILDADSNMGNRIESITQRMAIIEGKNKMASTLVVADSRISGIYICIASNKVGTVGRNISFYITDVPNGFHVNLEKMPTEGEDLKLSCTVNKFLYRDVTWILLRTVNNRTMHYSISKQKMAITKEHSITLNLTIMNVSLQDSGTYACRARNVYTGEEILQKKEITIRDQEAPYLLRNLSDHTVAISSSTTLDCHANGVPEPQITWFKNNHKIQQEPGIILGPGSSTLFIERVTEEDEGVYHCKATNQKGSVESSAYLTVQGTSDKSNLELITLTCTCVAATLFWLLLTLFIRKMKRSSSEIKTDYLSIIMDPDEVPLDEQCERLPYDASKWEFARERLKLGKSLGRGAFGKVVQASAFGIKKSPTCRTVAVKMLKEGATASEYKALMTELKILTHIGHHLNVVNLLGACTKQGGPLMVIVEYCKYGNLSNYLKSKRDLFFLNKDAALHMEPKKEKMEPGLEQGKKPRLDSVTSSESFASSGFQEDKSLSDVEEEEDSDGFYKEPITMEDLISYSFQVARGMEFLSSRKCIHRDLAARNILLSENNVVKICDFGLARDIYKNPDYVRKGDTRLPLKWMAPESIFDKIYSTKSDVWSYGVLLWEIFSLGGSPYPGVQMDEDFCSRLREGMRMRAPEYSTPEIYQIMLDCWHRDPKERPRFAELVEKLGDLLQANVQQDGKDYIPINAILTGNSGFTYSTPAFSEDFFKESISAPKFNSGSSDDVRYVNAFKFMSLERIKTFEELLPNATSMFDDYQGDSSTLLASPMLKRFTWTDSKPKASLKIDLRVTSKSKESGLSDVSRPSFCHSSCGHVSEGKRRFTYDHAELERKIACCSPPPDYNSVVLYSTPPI

[4] = target: PDGFβ (Homo sapiens, UniProt P09619); assay: PDGFβ enzyme assay; format: biochemical; conditions: Table IV, amide or urea linker
PDGFβ, sequence (P09619 33-1106): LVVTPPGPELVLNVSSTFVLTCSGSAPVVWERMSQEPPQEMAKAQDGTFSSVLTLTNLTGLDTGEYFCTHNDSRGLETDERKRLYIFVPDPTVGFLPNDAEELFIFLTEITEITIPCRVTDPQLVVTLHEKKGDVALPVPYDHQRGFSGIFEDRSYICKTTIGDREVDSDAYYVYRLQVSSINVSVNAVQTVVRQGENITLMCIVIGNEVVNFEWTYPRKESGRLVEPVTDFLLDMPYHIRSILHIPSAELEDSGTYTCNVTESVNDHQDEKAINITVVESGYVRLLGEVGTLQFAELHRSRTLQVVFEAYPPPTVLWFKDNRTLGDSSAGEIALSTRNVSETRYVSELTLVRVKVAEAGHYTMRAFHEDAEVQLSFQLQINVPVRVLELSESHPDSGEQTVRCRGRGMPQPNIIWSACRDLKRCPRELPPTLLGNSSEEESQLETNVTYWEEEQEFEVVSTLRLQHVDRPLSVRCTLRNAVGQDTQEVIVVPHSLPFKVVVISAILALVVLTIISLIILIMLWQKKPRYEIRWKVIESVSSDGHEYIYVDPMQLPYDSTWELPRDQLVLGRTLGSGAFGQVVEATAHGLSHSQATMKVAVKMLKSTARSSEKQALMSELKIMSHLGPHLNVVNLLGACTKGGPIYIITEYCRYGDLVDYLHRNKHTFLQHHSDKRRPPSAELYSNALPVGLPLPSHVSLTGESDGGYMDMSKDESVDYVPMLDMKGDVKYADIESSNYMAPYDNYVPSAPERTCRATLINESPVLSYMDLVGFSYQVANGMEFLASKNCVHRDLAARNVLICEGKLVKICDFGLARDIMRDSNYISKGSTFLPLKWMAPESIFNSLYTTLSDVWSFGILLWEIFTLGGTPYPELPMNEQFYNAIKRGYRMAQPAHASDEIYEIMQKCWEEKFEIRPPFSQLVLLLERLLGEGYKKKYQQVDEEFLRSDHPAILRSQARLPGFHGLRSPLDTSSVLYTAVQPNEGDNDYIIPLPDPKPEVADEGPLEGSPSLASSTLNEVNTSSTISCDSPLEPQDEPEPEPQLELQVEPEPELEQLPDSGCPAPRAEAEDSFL

VEGFR2, sequence (P35968 20-1356): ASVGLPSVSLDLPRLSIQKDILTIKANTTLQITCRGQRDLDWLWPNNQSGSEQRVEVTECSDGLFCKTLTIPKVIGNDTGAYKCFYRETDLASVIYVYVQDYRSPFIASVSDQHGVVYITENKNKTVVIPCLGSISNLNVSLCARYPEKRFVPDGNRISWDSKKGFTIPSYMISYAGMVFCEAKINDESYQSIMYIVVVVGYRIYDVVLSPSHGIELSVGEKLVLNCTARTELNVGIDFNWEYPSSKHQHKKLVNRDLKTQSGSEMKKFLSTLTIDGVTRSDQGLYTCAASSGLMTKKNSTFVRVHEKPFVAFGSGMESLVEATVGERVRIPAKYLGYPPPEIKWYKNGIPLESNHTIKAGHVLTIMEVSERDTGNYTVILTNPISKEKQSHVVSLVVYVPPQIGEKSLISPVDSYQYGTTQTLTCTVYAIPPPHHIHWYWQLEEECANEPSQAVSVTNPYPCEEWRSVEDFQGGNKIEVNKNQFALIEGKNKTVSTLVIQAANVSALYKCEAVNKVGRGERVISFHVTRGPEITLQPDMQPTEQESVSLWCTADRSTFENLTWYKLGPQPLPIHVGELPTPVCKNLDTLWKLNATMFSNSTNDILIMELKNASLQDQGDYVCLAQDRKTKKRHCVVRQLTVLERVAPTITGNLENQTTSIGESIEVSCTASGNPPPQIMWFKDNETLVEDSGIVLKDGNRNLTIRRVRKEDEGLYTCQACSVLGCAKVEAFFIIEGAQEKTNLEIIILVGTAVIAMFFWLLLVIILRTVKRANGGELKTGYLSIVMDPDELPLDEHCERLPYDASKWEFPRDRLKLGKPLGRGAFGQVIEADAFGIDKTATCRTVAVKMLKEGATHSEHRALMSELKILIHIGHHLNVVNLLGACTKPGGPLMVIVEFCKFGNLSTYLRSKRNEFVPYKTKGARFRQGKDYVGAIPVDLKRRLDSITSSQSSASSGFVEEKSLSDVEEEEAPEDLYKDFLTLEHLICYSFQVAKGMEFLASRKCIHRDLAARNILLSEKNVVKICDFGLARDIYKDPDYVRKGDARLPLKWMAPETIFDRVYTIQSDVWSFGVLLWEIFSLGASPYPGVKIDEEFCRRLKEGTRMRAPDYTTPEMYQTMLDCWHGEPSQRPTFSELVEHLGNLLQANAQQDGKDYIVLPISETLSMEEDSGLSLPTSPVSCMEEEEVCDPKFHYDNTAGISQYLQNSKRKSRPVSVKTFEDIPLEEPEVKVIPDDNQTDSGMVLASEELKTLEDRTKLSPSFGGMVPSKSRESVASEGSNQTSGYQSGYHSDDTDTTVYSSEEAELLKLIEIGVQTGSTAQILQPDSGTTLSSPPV

Row | SMILES | pIC50 [1] | pIC50 [2] | pIC50 [3] | pIC50 [4]
1 | CCOC(=O)N1CCN(CCCNC(=O)c2c[nH]c(-c3cc(Oc4cc(C(=O)Nc5cc(C)ccc5F)ccc4F)ccn3)c2)CC1 [Example 171, ethyl 4-{3-[({5-[4-(2-fluoro-5-{[(2-fluoro-5-methylphenyl)amino]carbonyl}phenoxy)pyridin-2-yl]-1H-pyrrol-3-yl}carbonyl)amino]propyl}piperazine-1-carboxylate] | 7.68 | 7.64 | 7.04 | 7.48
2 | CCOC(=O)CN1CCN(C(=O)c2c[nH]c(-c3cc(Oc4ccc(NC(=O)Nc5cc(C)ccc5F)c(F)c4)ccn3)c2)CC1 [Example 219, ethyl {4-[(5-{4-[3-fluoro-4-({[(2-fluoro-5-methylphenyl)amino]carbonyl}amino)phenoxy]pyridin-2-yl}-1H-pyrrol-3-yl)carbonyl]piperazin-1-yl}acetate] | 8.10 | 8.05 | 8.10 | 7.54
3 | Cc1ccc(F)c(NC(=O)Nc2ccc(Oc3ccnc(-c4cc(C(=O)N5CCNCC5)c[nH]4)c3)cc2F)c1 [Example 221, 1-(2-fluoro-5-methylphenyl)-3-[2-fluoro-4-({2-[4-(piperazin-1-ylcarbonyl)-1H-pyrrol-2-yl]pyridin-4-yl}oxy)phenyl]urea] | 7.82 | 7.96 | 8.15 | 7.72

More lines, now with the values ahead:

Row | pIC50 [1] | pIC50 [2] | pIC50 [3] | pIC50 [4] | SMILES
4 | 7.89 | 8.00 | 7.96 | 7.72 | CCOC(=O)N1CCN(CCCNC(=O)c2c[nH]c(-c3cc(Oc4ccc(NC(=O)Nc5cc(C)ccc5F)c(F)c4)ccn3)c2)CC1 [Example 172, ethyl 4-(3-{[(5-{4-[3-fluoro-4-({[(2-fluoro-5-methylphenyl)amino]carbonyl}amino)phenoxy]pyridin-2-yl}-1H-pyrrol-3-yl)carbonyl]amino}propyl)piperazine-1-carboxylate]
5 | 8.52 | 8.05 | 8.10 | 7.92 | COC(=O)CNC(=O)c1c[nH]c(-c2cc(Oc3ccc(NC(=O)Nc4cc(C)ccc4F)c(F)c3)ccn2)c1 [Example 211, methyl {[(5-{4-[3-fluoro-4-({[(2-fluoro-5-methylphenyl)amino]carbonyl}amino)phenoxy]pyridin-2-yl}-1H-pyrrol-3-yl)carbonyl]amino}acetate]
6 | 8.22 | 7.89 | 7.70 | 7.35 | Cc1ccc(F)c(NC(=O)Nc2ccc(Oc3ccnc(-c4cc(C(=O)NCCCNC(=O)OC(C)(C)C)c[nH]4)c3)cc2F)c1 [Example 212, tert-butyl (3-{[(5-{4-[3-fluoro-4-({[(2-fluoro-5-methylphenyl)amino]carbonyl}amino)phenoxy]pyridin-2-yl}-1H-pyrrol-3-yl)carbonyl]amino}propyl)carbamate]
7 | 8.52 | 8.05 | 7.89 | 7.42 | COC(=O)CN(CCCNC(=O)c1c[nH]c(-c2cc(Oc3ccc(NC(=O)Nc4cc(C)ccc4F)c(F)c3)ccn2)c1)CC(=O)OC [Example 213, dimethyl 2,2′-[(3-{[(5-{4-[3-fluoro-4-({[(2-fluoro-5-methylphenyl)amino]carbonyl}amino)phenoxy]pyridin-2-yl}-1H-pyrrol-3-yl)carbonyl]amino}propyl)imino]diacetate]
8 | 8.40 | 8.30 | 7.89 | 7.47 | COC(=O)CN(CCNC(=O)c1c[nH]c(-c2cc(Oc3ccc(NC(=O)Nc4cc(C)ccc4F)c(F)c3)ccn2)c1)CC(=O)OC [Example 215, dimethyl 2,2′-[(2-{[(5-{4-[3-fluoro-4-({[(2-fluoro-5-methylphenyl)amino]carbonyl}amino)phenoxy]pyridin-2-yl}-1H-pyrrol-3-yl)carbonyl]amino}ethyl)imino]diacetate]
